In US6767890B1, “Peptides having anti-cancer and anti-inflammatory activity” (priority 1998, dated 2004):
Values joined by “and” are separate entries in the source; they are usually repeats but may differ in a detail not shown here. Identical values can stand only once.

Tests used:
[1] = tested on: DNBS-induced distal colitis; assay: Inflammation, Inflammatory Bowel Disease (DNBS distal colitis); assay type: in vivo, rat; conditions: PO, Peptide 30 mg/kg × 7, Sulfasalazine 300 mg/kg × 7
Method: (§1) For in vivo assay, distilled water and saline was used as vehicle in oral and intraperitoneal administration, respectively. Dosing volume was 20 ml/kg for mice or 10 ml/kg for rats.
Groups of 3 Sprague-Dawley derived male rats weighing 150±20 gms and fasted for 24 hours were used. Distal colitis was induced by intra-colonic instillation of DNBS (2,4-dinitrobenzene sulfonic acid, 30 mg in 0.5 ml ethanol 30%) after which air (2 ml) was gently injected through the cannula to ensure that the solution remains in the colon. Test substance was administered PO (30 mg/kg) at 24 and 2 hours before DNBS instillation. Then, the animals received test compound every 24 hours for 5 consecutive days. The control group was given vehicle alone as compound dosing pattern. The animals were sacrificed 24 hours after the final dose of test compound administration and each colon was removed and weighed. Colon-to-body weight ratio was obtained from the percentage of the comparison between the animal colon weight and body weight on the 8th day. A 30 percent or more (±30%) reduction in colon-to-body weight ratio relative to the vehicle treated control group was considered significant.

PLA2, Pancreatic = biological target: T1, PLA2, Pancreatic (Sus scrofa, UniProt P00592); assay: PLA2, Pancreatic enzyme assay; assay type: biochemical, porcine; conditions: 300.0 μM; average of duplicate; negative = stimulation
T1 construct: porcine; from tissue; host or cells: porcine pancreas
Method: The peptide was further screened in vitro in a variety of enzyme and biochemical assays. Methods employed were adapted from the scientific literature to maximize reliability and reproducibility. The primary literature reference for each assay is listed in Table 11 opposite the results for each assay.
(§2) Results presented in Table 10, “Results,” are the average of duplicate determinations, unless otherwise noted.
Reference compounds were tested concurrently at 5 concentrations as an integral part of each assay to ensure the validity of the results obtained.
(§3) Enzyme assays were performed under conditions described in Table 8, “Experimental Conditions.”. The commercial suppliers and catalog numbers of substrates employed in this study are given in Table 7, “Material Sources.” The name, commercial source, and catalog numbers of concurrent reference compounds (controls) employed in this study are given in Table 9, “Reference Compound Data.” The reaction catalyzed by each enzyme is listed in Table 8, “Experimental Conditions.”
(§4) Biochemical assay results are presented in Table 10, as the percent inhibition of specific binding or activity, and unless noted are the average of duplicate tubes tested at each concentration.

5-Lipoxygenase = biological target: T2, 5-Lipoxygenase (Rattus norvegicus, UniProt P12527); assay: 5-Lipoxygenase enzyme assay; assay type: biochemical; conditions: 30.0 μM; average of duplicate; negative = stimulation
T2 construct: rat RBL-1 cells; endogenous in cells; host or cells: RBL-1 cells

[2] = tested on: croton oil-induced ear inflammation; assay: Mouse-ear edema model (croton oil); assay type: in vivo; conditions: 20 λ of 5% peptide in carbopol topically 30 min after 10% croton oil, ear biopsy weight at 24 hrs
Excerpt: Mouse-ear edema model. Croton-oil, which contains a variety of phorbol esters, and arachidonic acid (AA) are standard inducers of inflammation in mouse ears when applied topically. Phorbol esters, especially phorbol myristyl acetate (PMA), activate one or more isozymes of the ubiquitous membrane receptor, protein kinase C (PKC), which in turn initiates several metabolic cascades leading to inflammation. As is a substrate for one of these cascades, leading to prostaglandin and leukotriene production, both of which are inflammatory. Inhibition of such inflammation by a putative bioactive agent is considered a generalized indicator of potential pharmacologic activity.
Male Swiss Webster mice (15-20 g) were purchased from B&K Universal, Kent, Wash. and maintained in the laboratory for one day prior to entering the experiment. At t=0, the ventral side of both ears of each mouse was challenged topically with 10 λ of 10% croton oil in acetone. […] The animals were sacrificed by cervical dislocation at t=24 hrs, the ears removed, and a biopsy take from each ear with an 8 mm punch. The biopsy was immediately weighed on a 4-place balance.

Cyclooxygenase-2 = biological target: T3, Cyclooxygenase-2 (Ovis aries, UniProt P79208); assay: Cyclooxygenase-2 enzyme assay; assay type: biochemical, sheep; conditions: 300.0 μM; average of duplicate; negative = stimulation
T3 construct: sheep placenta; from tissue; host or cells: sheep placenta
Method: (§5) The peptide was further screened in vitro in a variety of enzyme and biochemical assays. Methods employed were adapted from the scientific literature to maximize reliability and reproducibility.
Unless otherwise indicated, the peptide was tested in duplicate at the concentrations indicated for each assay. Results presented in Table 10, “Results,” are the average of duplicate determinations, unless otherwise noted.
as §3, §4

PAF-induced mortality = assay: Platelet Activating Factor (PAF) Antagonism; assay type: in vivo, mouse; conditions: Peptide 100 mg/kg, WEB-2086 3 mg/kg
Method: as §1
Groups of 5 male ICR mice weighing 22±2 gms were employed. At dose of 100 mg/kg test substance dissolved in a vehicle of distilled water were administered orally. The control group received vehicle alone. At 60 minutes after dosing, the animals were injected intravenously PAF-acether ([…] IV, dissolved in 0.25% BSA). One hour later, the survival animals were recorded. The prevention of PAF-induced mortality in 50 percent or more (≧50%) of mice indicated significant activity.

Leukotriene B4 = biological target: T4, Leukotriene B4 (Homo sapiens, UniProt Q15722); assay: Leukotriene B4 radioligand binding; conditions: 10.0 μM; specific binding of [3H]LTB4; negative = stimulation
T4 construct: human U937; endogenous in cells; host or cells: U937 cells
Method: as §5, §2
Radioligand binding assays were performed under conditions described in Table 8, “Experimental Conditions.” Radioligands employed in this study are given in Table 8, and commercial sources and catalog numbers of the radioligands are provided in Table 7, “Material Sources.” Unlabeled, blocking ligands employed this study are listed in Table 8, “Experimenal Conditions,” along with the commercial sources and catalog number of the unlabeled ligand. The concurrent reference compound (control) employed in each assay is listed in Table 9, “Reference Compound Data,” along with the commercial supplier and catalog number of the compound. Where receptors have been obtained through recombinant expression techniques, the species from which the cDNA was obtained, and the type of expression system employed (mammalian, insect, bacterial) is also given Table 7.
Maximum total binding and nonspecific binding were determined each time each assay was run. Nonspecific binding was defined as the proportion of total binding not displaced by unlabeled ligand specific for the receptor. […]

[3] = tested on: vasculature of chick embryos; assay: CAM assay; assay type: in vivo
Method: Method: The method used was that described in D. Knighton, D. Ausprunk, D. Tapper, and J. Folkman, “Avascular and Vascular Phases of Tumour Growth in the Chick Embryo.” J. Cancer 35:347-355 (1977) Procedure: The test compounds were suspended in sterile saline and then applied to methylcellulose discs, ¼ inch diameter with a micropipette and allowed to air dry at a concentration of 10 μg/disc.
The test was graded as follows:
The following scores are based on the observation of at least 10 chick embryos.

T2 sequence (P12527 whole entry): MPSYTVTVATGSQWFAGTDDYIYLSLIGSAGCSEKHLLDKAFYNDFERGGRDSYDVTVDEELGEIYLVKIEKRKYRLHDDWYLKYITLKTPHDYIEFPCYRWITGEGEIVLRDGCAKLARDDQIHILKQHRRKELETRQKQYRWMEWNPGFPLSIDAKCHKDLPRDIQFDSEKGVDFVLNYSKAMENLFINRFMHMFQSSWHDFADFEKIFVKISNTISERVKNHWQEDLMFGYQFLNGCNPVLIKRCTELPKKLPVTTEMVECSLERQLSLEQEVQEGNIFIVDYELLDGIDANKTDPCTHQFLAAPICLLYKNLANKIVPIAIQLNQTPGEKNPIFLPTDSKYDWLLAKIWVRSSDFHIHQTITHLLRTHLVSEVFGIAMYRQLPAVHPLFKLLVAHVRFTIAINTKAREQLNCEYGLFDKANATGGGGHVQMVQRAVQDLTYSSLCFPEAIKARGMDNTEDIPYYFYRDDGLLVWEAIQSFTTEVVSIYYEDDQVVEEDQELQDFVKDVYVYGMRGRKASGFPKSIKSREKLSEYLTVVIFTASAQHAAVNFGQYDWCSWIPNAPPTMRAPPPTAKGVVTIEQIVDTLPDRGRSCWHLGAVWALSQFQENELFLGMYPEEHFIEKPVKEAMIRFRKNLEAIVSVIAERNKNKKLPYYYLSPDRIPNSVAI
T1 sequence (P00592 23-146): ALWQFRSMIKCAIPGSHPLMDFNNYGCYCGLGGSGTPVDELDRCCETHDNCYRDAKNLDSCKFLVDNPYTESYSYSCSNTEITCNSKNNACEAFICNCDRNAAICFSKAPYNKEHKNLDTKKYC
T3 sequence (P79208 17-603): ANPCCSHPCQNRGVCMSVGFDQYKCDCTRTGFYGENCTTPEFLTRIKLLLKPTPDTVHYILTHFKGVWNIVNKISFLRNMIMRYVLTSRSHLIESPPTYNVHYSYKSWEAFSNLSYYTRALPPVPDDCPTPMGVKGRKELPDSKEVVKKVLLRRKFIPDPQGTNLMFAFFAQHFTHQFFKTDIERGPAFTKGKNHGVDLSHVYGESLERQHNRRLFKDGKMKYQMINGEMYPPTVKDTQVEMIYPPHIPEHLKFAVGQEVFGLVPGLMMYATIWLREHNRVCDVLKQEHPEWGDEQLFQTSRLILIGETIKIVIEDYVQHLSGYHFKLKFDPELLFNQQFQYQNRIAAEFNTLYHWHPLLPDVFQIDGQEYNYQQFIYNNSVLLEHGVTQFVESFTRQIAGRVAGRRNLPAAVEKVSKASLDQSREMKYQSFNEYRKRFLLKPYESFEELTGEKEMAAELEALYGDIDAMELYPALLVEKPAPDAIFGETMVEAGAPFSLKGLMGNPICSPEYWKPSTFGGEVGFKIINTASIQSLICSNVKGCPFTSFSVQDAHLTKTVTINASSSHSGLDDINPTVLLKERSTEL
T4 sequence (Q15722 whole entry): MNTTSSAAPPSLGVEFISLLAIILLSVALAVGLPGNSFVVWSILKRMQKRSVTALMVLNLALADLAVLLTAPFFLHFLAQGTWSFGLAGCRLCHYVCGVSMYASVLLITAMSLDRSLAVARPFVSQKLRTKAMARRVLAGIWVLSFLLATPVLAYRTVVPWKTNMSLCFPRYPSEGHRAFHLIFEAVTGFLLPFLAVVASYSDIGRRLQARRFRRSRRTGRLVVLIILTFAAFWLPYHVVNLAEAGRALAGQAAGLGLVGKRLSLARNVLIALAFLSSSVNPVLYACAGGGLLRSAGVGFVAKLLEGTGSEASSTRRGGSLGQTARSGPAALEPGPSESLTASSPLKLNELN

## LEU-PRO-PRO-SER-ARG [Peptide]
[1]; group mean minus blank-control
  Ratio Net: 0.276%
[1]; group mean
  Ratio Ind., X (group mean): 0.646%
[1]; individual rat, Colon (g)/8th B.W. × 100%
  Ratio Ind. (colon-to-body weight ratio): 0.683% and 0.608%
[1]; reduction in colon-to-body weight ratio relative to vehicle control
  % INH.: 22%
PLA2, Pancreatic
  % Inhibition: −11%
5-Lipoxygenase
  % Inhibition: 0%
[2]
  reduction in swelling compared to vehicle-only treated ears: 61%
Cyclooxygenase-2
  % Inhibition: 2%
PAF-induced mortality; PO one hour before PAF-acether 100 μg/kg IV
  % Protection: 0%
PAF-induced mortality; of 5 mice, one hour after PAF-acether 100 μg/kg IV, PO one hour before
  No. of Survival: 0
Leukotriene B4
  % Inhibition: 8%
[3]; 10 μg/disc on methylcellulose discs, at least 10 chick embryos, graded 0 to +4
  CAM assay antiangiogenesis score: 3.6
[3]; CAM assay, 10 μg/disc
  inhibited proliferation of vacularization: approximately 95%
